Experimental data: patent US9273017B2, “(Thio)morpholine derivatives as S1P modulators” (ABBVIE BAHAMAS LIMITED, priority 2009, dated 2016)

Experiments:
human S1P5 receptor = target: T1, human S1P5 receptor (Homo sapiens, UniProt Q9H228); assay: In vitro functional activity (agonism), CHO-human-S1P5-Aequorin assay; assay type: cell-based; conditions: read-out: S1P5 pEC50 (converted)
T1 construct: host or cells: CHO (AequoScreen recombinant cell line, co-expressing mitochondrially targeted apo-aequorin)
Text: In Vitro Functional Activity (Agonism) on Human S1P5 Receptors
(§1) The CHO-human-S1P5-Aeqorin assay was bought from Euroscreen, Brussels (Euroscreen, Technical dossier, Human Lysophospholid S1P5 (Edg8) receptor, DNA clone and CHO AequoScreen™ recombinant cell-line, catalog no: ES-593-A, September 2006). Human-S1P5-Aequorin cells express mitochondrial targeted apo-Aequorin. Cells have to be loaded with coelanterazine, in order to reconstitute active Aequorin. After binding of agonists to the human S1P5 receptor the intracellular calcium concentration increases and binding of calcium to the apo-Aequorin/coelenterazine complex leads to an oxidation reaction of coelenterazine, which results in the production of apo-Aequorin, coelenteramide, CO2 and light (λmax 469 nm). This luminescent response is dependent on the agonist concentration. Luminescence is measured using the MicroBeta Jet (Perkin Elmer). Agonistic effects of compounds are expressed as pEC50. Compounds were tested at a 10 points half log concentration range, and 3 independent experiments were performed in single point's measurements.

human S1P1 = target: T2, human S1P1 (Homo sapiens, UniProt P21453); assay: In vitro functional activity (agonism), CHO-K1-human S1P1 cAMP assay; assay type: cell-based; conditions: read-out: S1P1 pEC50 (converted)
T2 construct: host or cells: CHO-K1
Experimental: In Vitro Functional Activity (Agonism) on Human S1P1 Receptors
The CHO-K1-Human S1P1-c-AMP assay was performed at Euroscreenfast, Brussels (Euroscreen, Human S1P1 coupling Gi/o), (Edg1) receptor, catalog no: FAST-0197C, December 2009).
Recombinant CHO-K1 cells expressing human S1P1, grown to mid-log Phase in culture media without antibiotics, detached, centrifuged and re-suspended. For agonist testing cells are mixed with compound and Forskolin and incubated at room temperature. Cells are lyses and cAMP concentration are estimated, according to the manufacturer specification, With the HTRF kit from CIS-BIO International (cat no 62AM2PEB).
Agonistic effects of compounds are expressed as a percentage of the activity of the reference compound at its EC100 concentration, EC50) is calculated and results are reported as pEC50. Compounds were tested at a 10 points half log concentration range duplicated in 1 experiment.

C57BL/6J mice = assay: In vivo therapeutic model; T-maze spontaneous alternation; conditions: 12-month old male C57BL6J mice; 10 mg/kg/day p.o. for 21 days and on test day at t=-30 min
Experimental: FIG. 1 Percentage of alternation of young and old C57BL/6J male mice in the T-maze with either vehicle (control groups) or compound 34b (10 mg/kg; p.o.)
In Vivo Therapeutic Model; T-Maze
Age-related memory deficits occur in humans and rodents. Spontaneous alternation is the innate tendency of rodents to alternate free choices in a T-maze over a series of successive runs. This sequential procedure relies on working memory and is sensitive to various pharmacological manipulations affecting memory processes (Aging and the physiology of spatial memory. Barnes C. A. Neurobiol. Aging 1988:563-8; Dember W N, Fowler H. Spontaneous alternation behavior. Psychol. Bull. 1958, 55(6):412-427; Gerlai R. A new continuous alternation task in T-maze detects hippocampal dysfunction in mice. A strain comparison and lesion study. Behav Brain Res 1998 95(1):91-101).
For this study, male C57BL/6J mice of 2 months or 12 months old were used in the spontaneous alternation task in the T-maze. In short, mice were subjected to 1 session containing 15 trials, consisting of 1 “forced-choice” trial, followed by 14 “free-choice” trials. The animal was considered as entering one of the arms of the maze when all four paws are placed within this arm. […] The percentage of alternation over the 14 free-choice trials was determined for each mouse and was used as an index of working memory performance. […]

human S1P3 receptor = target: T3, human S1P3 receptor (Homo sapiens, UniProt Q99500); assay: In vitro functional activity (agonism), CHO-human-S1P3-Aequorin assay; assay type: cell-based; conditions: read-out: S1P3 pEC50 (converted)
T3 construct: cell line established at Solvay Pharmaceuticals; host or cells: CHO K1 (CHO/Gα16/AEQ/h-S1P3)
Text: In Vitro Functional Activity (Agonism) on Human S1P3 Receptors
The CHO-human-S1P3-Aeqorin assay (CHO/Gα16/AEQ/h-S1P3) was established at Solvay Pharmaceuticals. The plasmid DNA coding for the S1P3 receptor (accession number in GenBank NM_005226 was purchased from UMR cDNA resource Centre (Rolla, Mo.). The pcDNA3.1/hS1P3 construct carrying the mitochondrially targeted apo-Aeqorin and Gα16 protein was transfected in CHO K1 cell-line.
as §1, with “Human-S1P3-Aequorin” for “The CHO-human-S1P5-Aeqorin assay was bought from Euroscreen, Brussels (Euroscreen, Technical dossier, Human Lysophospholid S1P5 (Edg8) receptor, DNA clone and CHO AequoScreen™ recombinant cell-line, catalog no: ES-593-A, September 2006). Human-S1P5-Aequorin”, “S1P3” for “S1P5”

T2 sequence (P21453 whole entry): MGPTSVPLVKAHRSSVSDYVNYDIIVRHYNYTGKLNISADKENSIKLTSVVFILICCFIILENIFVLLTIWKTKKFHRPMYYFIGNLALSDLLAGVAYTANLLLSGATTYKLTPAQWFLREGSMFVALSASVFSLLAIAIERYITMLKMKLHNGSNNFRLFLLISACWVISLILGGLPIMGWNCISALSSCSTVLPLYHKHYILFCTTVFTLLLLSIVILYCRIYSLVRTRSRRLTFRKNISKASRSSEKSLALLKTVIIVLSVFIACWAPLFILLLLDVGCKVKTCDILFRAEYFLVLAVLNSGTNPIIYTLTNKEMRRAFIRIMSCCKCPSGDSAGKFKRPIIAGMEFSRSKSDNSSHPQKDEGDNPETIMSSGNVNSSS
T1 sequence (Q9H228 whole entry): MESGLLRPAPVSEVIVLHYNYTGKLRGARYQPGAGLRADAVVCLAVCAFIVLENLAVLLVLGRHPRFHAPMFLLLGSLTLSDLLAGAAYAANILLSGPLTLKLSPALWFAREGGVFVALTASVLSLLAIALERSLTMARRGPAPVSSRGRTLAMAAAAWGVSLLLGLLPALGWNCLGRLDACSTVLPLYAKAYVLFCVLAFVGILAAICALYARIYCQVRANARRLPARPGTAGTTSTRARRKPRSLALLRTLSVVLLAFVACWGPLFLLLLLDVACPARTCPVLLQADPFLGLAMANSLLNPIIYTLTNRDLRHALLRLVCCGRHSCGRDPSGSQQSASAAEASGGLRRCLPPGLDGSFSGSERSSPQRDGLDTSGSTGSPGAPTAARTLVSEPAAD
T3 sequence (Q99500 whole entry): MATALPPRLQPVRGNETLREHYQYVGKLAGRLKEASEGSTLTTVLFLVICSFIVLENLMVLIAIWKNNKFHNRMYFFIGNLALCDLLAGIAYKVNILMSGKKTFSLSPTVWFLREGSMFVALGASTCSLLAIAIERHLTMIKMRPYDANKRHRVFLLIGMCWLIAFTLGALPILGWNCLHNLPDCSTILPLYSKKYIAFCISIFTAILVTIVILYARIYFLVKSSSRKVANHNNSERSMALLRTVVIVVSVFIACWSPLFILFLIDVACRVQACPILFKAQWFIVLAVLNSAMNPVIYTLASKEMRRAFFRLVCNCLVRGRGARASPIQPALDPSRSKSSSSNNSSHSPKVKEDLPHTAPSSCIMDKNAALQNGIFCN

SMILES | EC50 (human S1P5 receptor) | EC50 (human S1P1) | reversal of the age-related cognitive decline (percentage of alternation in T-maze) (C57BL/6J mice) | EC50 (human S1P3 receptor) | melting point
Cl.O=C(O)CCN1CCOC(c2ccc(OCc3c(Cl)cccc3Cl)cc2)C1 (single isomer, unassigned; (-)) [Compound 34b, (−)-3-{2-[4-(2,6-Dichloro-benzyloxy)-phenyl]-morpholin-4-yl}-propionic acid hydrochloride] | 31.6 nM | > 3160 nM | 100% | – | –
CCCCCCCCOc1ccc(C2CN(CCC(=O)O)CCO2)c(C(F)(F)F)c1.Cl (stereo not shown) [Compound 189, 3-[2-(4-Octyloxy-2-trifluoromethyl-phenyl)-morpholin-4-yl]-propionic acid hydrochloride] | 158 nM | 1580 nM | – | 1580 nM | 178.5 to 180.5 °C
